Laboratory results: US10213429B2, “Imidazo-pyrazinyl derivatives useful as soluble guanylate cyclase activators” (Merck Sharp & Dohme Corp., priority 2015, dated 2019)

Columns and labels:
[1] = tested on: Spontaneously hypertensive rats (SHR); assay: Acute Efficacy in Spontaneously Hypertensive Rats (SHR), telemetry blood pressure; format: in vivo, rat; conditions: SHR male
Excerpt: Acute Efficacy in Spontaneously Hypertensive Rats (SHR)
Spontaneously hypertensive rats (SHR, male, Charles River) were implanted with DSI TA11PA-C40 telemetry device (Data Sciences, Inc., St. Paul, Minn.) under isoflurane or ketamine/metomidine anesthesia. The telemetry unit catheter was inserted into the descending aorta via the femoral artery and the telemetry device was implanted subcutaneously in the left flank area. Animals were allowed to recover from surgery for 14 days before the start of any studies. Blood pressure, heart rate, and activity signals from conscious, freely moving rats were recorded continuously for 30 seconds every 10 minutes. On the day prior to administration of compound, a single oral dose of vehicle (10% transcutol/20% Cremophor/70% water) was administered to all animals to establish baseline control data. The blood pressure lowering efficacy of compound (PO) or vehicle was evaluated following a single oral gavage. Data were collected as hourly averages, and changes in blood pressure were calculated by subtracting control baseline data on an hourly basis. Animals were maintained on normal diet with a 12 hour light-dark cycle.
Maximum peak decreases of systolic blood pressure (SBP) in SHR at a particular P.O. dose (mpk milligrams per kilogram) for the following representative compounds are provided. • Category A=SBP in SHRs<20 mmHg; Category B=SBP in SHRs 20-40 mmHg; • Category C=SBP in SHRs>40 mmHg

[2] = molecular target: T1, sGC α1/β1 heterodimer (Homo sapiens, UniProt Q02108+Q02153); assay: Cell-Based sGC Functional Assay (CASA Assay), cGMP by HTRF in CHO-K1/sGC cells; conditions: for Emax: CHO-K1, percent activation relative to maximum cGMP production of Compound A (= 100%), read-out: % Act.; for EC50: cGMP production, 1 hr at 37° C., 4P fit, presence or absence of 1 μM DETA-NO not given, read-out: IP (nM) (inflection point)
T1 construct: expressed in transfected cells; host or cells: CHO-K1 (clone #7, CHO-K1/sGC)
T1 sequence (Q02108 1-690): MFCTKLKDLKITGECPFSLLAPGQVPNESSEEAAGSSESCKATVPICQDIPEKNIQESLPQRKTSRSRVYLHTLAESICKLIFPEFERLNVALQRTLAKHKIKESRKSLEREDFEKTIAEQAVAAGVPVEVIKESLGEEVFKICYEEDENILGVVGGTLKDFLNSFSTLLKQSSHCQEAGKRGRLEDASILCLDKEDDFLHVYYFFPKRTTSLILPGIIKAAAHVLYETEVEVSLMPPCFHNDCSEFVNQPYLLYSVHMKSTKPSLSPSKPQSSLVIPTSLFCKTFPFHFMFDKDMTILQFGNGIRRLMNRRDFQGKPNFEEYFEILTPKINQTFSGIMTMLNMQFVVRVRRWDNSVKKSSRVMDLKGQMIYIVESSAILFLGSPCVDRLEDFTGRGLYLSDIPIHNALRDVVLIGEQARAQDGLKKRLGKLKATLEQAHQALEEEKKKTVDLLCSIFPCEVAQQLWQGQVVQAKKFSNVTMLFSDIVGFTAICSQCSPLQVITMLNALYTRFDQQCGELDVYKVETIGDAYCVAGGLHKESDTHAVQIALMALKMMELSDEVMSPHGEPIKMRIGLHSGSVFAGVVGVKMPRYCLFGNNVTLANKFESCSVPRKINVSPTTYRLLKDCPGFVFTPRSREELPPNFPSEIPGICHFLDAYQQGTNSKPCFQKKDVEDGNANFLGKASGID
T1 sequence (Q02153 1-619): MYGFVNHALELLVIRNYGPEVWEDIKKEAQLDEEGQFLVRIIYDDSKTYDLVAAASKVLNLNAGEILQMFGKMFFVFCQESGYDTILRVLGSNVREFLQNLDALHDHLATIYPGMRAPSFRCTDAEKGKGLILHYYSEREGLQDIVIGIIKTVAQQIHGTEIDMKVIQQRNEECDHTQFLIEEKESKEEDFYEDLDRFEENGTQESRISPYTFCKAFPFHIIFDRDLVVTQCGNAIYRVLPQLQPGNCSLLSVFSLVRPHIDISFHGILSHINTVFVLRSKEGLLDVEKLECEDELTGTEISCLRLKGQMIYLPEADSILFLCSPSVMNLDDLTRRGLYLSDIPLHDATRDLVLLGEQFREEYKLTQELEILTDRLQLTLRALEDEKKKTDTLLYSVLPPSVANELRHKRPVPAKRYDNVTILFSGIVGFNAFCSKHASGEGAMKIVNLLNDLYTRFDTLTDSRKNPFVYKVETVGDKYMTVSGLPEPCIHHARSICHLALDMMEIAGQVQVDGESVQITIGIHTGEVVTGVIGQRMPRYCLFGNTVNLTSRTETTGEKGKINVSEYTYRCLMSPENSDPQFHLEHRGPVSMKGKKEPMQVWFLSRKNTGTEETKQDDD
In short: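 CHO-K1 cells stably expressing human sGC α1/β1, in EBSS buffer with 5 mM MgCl2, 10 mM HEPES, 0.05% BSA and 0.5 mM IBMX, incubated with compound (2.5% DMSO) ± 1 μM DETA-NO, 1 h, 37 °C. Intracellular cGMP read by HTRF; activity as % of reference activator maximum, IP from 4-parameter fit.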

SMILES	Emax [2]	EC50 [2]	Cat. (maximum peak decrease of systolic blood pressure (SBP) in SHR) ([1]; single oral dose 3.0 mpk P.O.)	Cat. (maximum peak decrease of systolic blood pressure (SBP) in SHR) ([1]; single oral dose 1.0 mpk P.O.)	Cat. (maximum peak decrease of systolic blood pressure (SBP) in SHR) ([1]; single oral dose 2.0 mpk P.O.)	Cat. (maximum peak decrease of systolic blood pressure (SBP) in SHR) ([1]; single oral dose 0.3 mpk P.O.)
CC1(c2ccc(F)cc2)C(=O)Nc2nc(-c3cn4ccnc4c(CCC(F)(F)C(F)(F)F)n3)nc(O)c21 (stereo not drawn) [Example 2A, 5-(4-Fluorophenyl)-4-hydroxy-5-methyl-2-(8-(3,3,4,4,4-pentafluorobutyl)imidazo[1,2-a]pyrazin-6-yl)-5H-pyrrolo[2,3-d]pyrimidin-6(7H)-one]	102%	433 nM	B (Category B=SBP in SHRs 20-40 mmHg)	–	–	–
CCCCc1nc(-c2ncc3c(n2)NC(=O)C3(c2ccc(Cl)cc2)C2CC2)cn2ccnc12 (stereo not drawn) [Example 49B, 2-(8-butylimidazo[1,2-a]pyrazin-6-yl)-5-(4-chlorophenyl)-5-cyclopropyl-5H-pyrrolo[2,3-d]pyrimidin-6(7H)-one]	157%	24 nM	–	B (Category B=SBP in SHRs 20-40 mmHg)	–	–
CC1(c2ccc(Cl)cc2)C(=O)Nc2nc(-c3cn4ccnc4c(CCC(F)(F)C(F)(F)F)n3)nc(O)c21 (stereo not drawn) [Example 4A, 5-(4-chlorophenyl)-4-hydroxy-5-methyl-2-(8-(3,3,4,4,4-pentafluorobutyl)imidazo[1,2-a]pyrazin-6-yl)-5H-pyrrolo[2,3-d]pyrimidin-6(7H)-one]	83%	125 nM	B (Category B=SBP in SHRs 20-40 mmHg)	–	–	–
CC1(c2ccc(F)cc2)C(=O)Nc2nc(-c3cn4ccnc4c(CCC(F)(F)C(F)(F)F)n3)nc(C(N)=O)c21 (stereo not drawn) [Example 86A, 5-(4-Fluorophenyl)-5-methyl-6-oxo-2-(8-(3,3,4,4,4-pentafluorobutyl)imidazo[1,2-a]pyrazin-6-yl)-6,7-dihydro-5H-pyrrolo[2,3-d]pyrimidine-4-carboxamide]	109%	57 nM	–	B (Category B=SBP in SHRs 20-40 mmHg)	–	–
O=C1Nc2nc(-c3cn4ccnc4c(CCCC(F)(F)F)n3)ncc2C1(c1ccc(Cl)cn1)C1CC1 (stereo not drawn) [Example 9A, 5-(5-chloropyridin-2-yl)-5-cyclopropyl-2-(8-(4,4,4-trifluorobutyl)imidazo[1,2-a]pyrazin-6-yl)-5H-pyrrolo[2,3-d]pyrimidin-6(7H)-one]	120%	74 nM	–	–	B (Category B=SBP in SHRs 20-40 mmHg)	–
CC1(c2ccc(Cl)cn2)C(=O)Nc2nc(-c3cn4ccnc4c(CCC(F)(F)C(F)(F)F)n3)ncc21 (stereo not drawn) [Example 36A, 5-(5-Chloropyridin-2-yl)-5-methyl-2-(8-(3,3,4,4,4-pentafluorobutyl)imidazo[1,2-a]pyrazin-6-yl)-5H-pyrrolo[2,3-d]pyrimidin-6(7H)-one]	104%	54 nM	–	–	–	A (Category A=SBP in SHRs<20 mmHg)

Continued by falling EC50 [2], values first:

Emax [2]	EC50 [2]	SMILES	Cat. (maximum peak decrease of systolic blood pressure (SBP) in SHR) ([1]; single oral dose 3.0 mpk P.O.)	Cat. (maximum peak decrease of systolic blood pressure (SBP) in SHR) ([1]; single oral dose 1.0 mpk P.O.)	Cat. (maximum peak decrease of systolic blood pressure (SBP) in SHR) ([1]; single oral dose 2.0 mpk P.O.)	Cat. (maximum peak decrease of systolic blood pressure (SBP) in SHR) ([1]; single oral dose 0.3 mpk P.O.)
92%	525 nM	O=C1Nc2nc(-c3cn4ccnc4c(CCC(F)(F)C(F)(F)F)n3)nc(O)c2C1(c1ccc(F)cc1)C1CC1 (stereo not drawn) [Example 12B, 5-cyclopropyl-5-(4-fluorophenyl)-4-hydroxy-2-(8-(3,3,4,4,4-pentafluorobutyl)imidazo[1,2-a]pyrazin-6-yl)-5H-pyrrolo[2,3-d]pyrimidin-6(7H)-one]	A (Category A=SBP in SHRs<20 mmHg)	–	–	–
78%	365 nM	CC1(c2ccc(F)cn2)C(=O)Nc2nc(-c3cn4ccnc4c(CCC(F)(F)C(F)(F)F)n3)nc(O)c21 (single isomer, unassigned) [Example 18B, 5-(5-fluoropyridin-2-yl)-4-hydroxy-5-methyl-2-(8-(3,3,4,4,4-pentafluorobutyl)imidazo[1,2-a]pyrazin-6-yl)-5H-pyrrolo[2,3-d]pyrimidin-6(7H)-one]	A (Category A=SBP in SHRs<20 mmHg)	–	–	–
111%	235 nM	CC(C)Cc1nc(-c2ncc3c(n2)NC(=O)C3(C)c2ccc(Cl)cn2)cn2ccnc12 (stereo not drawn) [Example 41A, 5-(5-chloropyridin-2-yl)-2-(8-isobutylimidazo[1,2-a]pyrazin-6-yl)-5-methyl-5H-pyrrolo[2,3-d]pyrimidin-6(7H)-one]	A (Category A=SBP in SHRs<20 mmHg)	–	–	–
92%	225 nM	CC1(c2ccc(F)cc2)C(=O)Nc2nc(-c3cn4ccnc4c(CC4CCC4)n3)nc(O)c21 (stereo not drawn) [Example 29A, 2-(8-(cyclobutylmethyl)imidazo [1,2-a]pyrazin-6-yl)-5-(4-fluorophenyl)-4-hydroxy-5-methyl-5H-pyrrolo[2,3-d]pyrimidin-6(7H)-one]	B (Category B=SBP in SHRs 20-40 mmHg)	–	–	–
146%	204 nM	CCCCc1nc(-c2nc(O)c3c(n2)NC(=O)C3(c2ccc(Cl)cc2)C2CC2)cn2ccnc12 (stereo not drawn) [Example 23B, 2-(8-butylimidazo[1,2-a]pyrazin-6-yl)-5-(4-chlorophenyl)-5-cyclopropyl-4-hydroxy-5H-pyrrolo[2,3-d]pyrimidin-6(7H)-one]	–	A (Category A=SBP in SHRs<20 mmHg)	–	–
90%	200 nM	CC1(c2ccc(Cl)cc2)C(=O)Nc2nc(-c3cn4ccnc4c(CCCC(F)(F)F)n3)nc(O)c21 (stereo not drawn) [Example 26A, 5-(4-chlorophenyl)-4-hydroxy-5-methyl-2-(8-(4,4,4-trifluorobutyl)imidazo[1,2-a]pyrazin-6-yl)-5H-pyrrolo[2,3-d]pyrimidin-6(7H)-one]	C (Category C=SBP in SHRs>40 mmHg)	–	–	–
167%	106 nM	CC1(C(=O)NC2CC2)C(=O)Nc2nc(-c3cn4ccnc4c(Cc4ccc(F)cc4)n3)ncc21 (single isomer, unassigned) [Example 67A, N-Cyclopropyl-2-(8-(4-fluorobenzyl)imidazo[1,2-a]pyrazin-6-yl)-5-methyl-6-oxo-6,7-dihydro-5H-pyrrolo[2,3-d]pyrimidine-5-carboxamide]	–	B (Category B=SBP in SHRs 20-40 mmHg)	–	–
63%	37 nM	CCCCc1nc(-c2ncc3c(n2)NC(=O)C3(C)c2ccc(F)cn2)cn2ccnc12 (stereo not drawn) [Example 82B, 2-(8-butylimidazo[1,2-a]pyrazin-6-yl)-5-(5-fluoropyridin-2-yl)-5-methyl-5H-pyrrolo[2,3-d]pyrimidin-6(7H)-one]	–	C (Category C=SBP in SHRs>40 mmHg)	–	–
137%	21 nM	O=C1Nc2nc(-c3cn4ccnc4c(CCCC(F)(F)F)n3)ncc2C1(c1ccc(F)cn1)C1CC1 (stereo not drawn) [Example 54A, 5-cyclopropyl-5-(5-fluoropyridin-2-yl)-2-(8-(4,4,4-trifluorobutyl)imidazo[1,2-a]pyrazin-6-yl)-5H-pyrrolo[2,3-d]pyrimidin-6(7H)-one]	–	A (Category A=SBP in SHRs<20 mmHg)	–	–
